We go through one compound from US20240174684A1, “INHIBITORS OF cGAS ACTIVITY AS THERAPEUTIC AGENTS” (BELLBROOK LABS, LLC, priority 2021, published 2024).

The test system of one data set is TLR4 pathway. The experiment in a line: Reporter gene assay NFKB (TLR4). It counts as cell-based. To be noted: at concentrations above 25 μM. As to the method: (§1) CETSA was also used to confirm that the compounds are binding to cGAS in cells; THP-1 cells are used for this analysis. Compounds were tested in dose response mode by incubating with cells for 1.5 hours at 37° C., followed by pelleting and re-suspending in PBS, heating to 51.5° C. for 3 min and cooling to room temp. Cells were then lysed, debris, including denatured cGAS, was pelleted and the supernatant was analyzed for soluble cGAS by Western Blot using anti-cGAS primary Ab (Cell Signaling). Band intensity was analyzed using Image J software. Stimulation with cGAMP directly activates STING, circumventing cGAS; this was used to determine if compounds had effects on downstream components of cGAS/STING signaling. The IFN-6 ELISA was used as the primary measure of cellular potency and selectivity (Table 3) and used the reporter gene assays for assessing off-target activity with other pattern recognition receptors.
(§2) The reporter gene assays were used to assess off-target activity with IRF30Luc (RIG-1) or NFKB (TLR4); CellTiter Glo (ATP levels) and Presto Blue (reducing equivalents) were used to assess cytotoxicity; all assays were performed in dose response mode. […] The inventors recently began using human PBMCs to assess cellular potency in a more physiologically relevant context.

Data set [1] has as its system IFNβ production in THP-1 cells. In words: IFNβ ELISA in THP-1 cells. It counts as cell-based, human. In outline:
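THP-1 cells stimulated with dsDNA or cGAMP (STING activation bypassing cGAS) in the presence of compound; IFNβ secreted into medium quantified by ELISA. IC50 values reported in potency bins.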
Background: An ELISA detects its analyte on a solid surface through an enzyme-linked reagent.

In the next data set the target is mouse cGAS (Mus musculus, UniProt Q8C6L5). In words: Transcreener cGAS enzymatic assay with mouse cGAS. The settings on record: standard conditions, read-out: IC50 with mcGAS. Type of data set: biochemical. As to the method: Structural, biochemical and biophysical analysis and selectivity profiling: Potency and MOA studies, including Mn^2+ sensitivity, were performed using the Transcreener cGAS enzymatic assay, which is manufactured at BellBrook Labs (Fitchburg, Wisconsin, USA). This homogenous cGAS enzymatic assay was developed with fluorescence polarization (FP) and time-resolved Forster resonance energy transfer (TR-FRET) readouts, as described in International Patent Publication WO 2020/142729, incorporated by reference herein in its entirety. Plates are read on a PHERAstar FSX multimode reader (BMG). The compounds of the disclosure were tested for inhibition of cGAS ([…]) using this cGAS enzymatic assay under standard conditions (100 μM ATP and GTP, 62.5 nM bp ISD, 60 minute reactions), high ATP and GTP (1 mM) to mimic physiological conditions, in the presence of 200 μM MnCl2, and with mouse cGAS under standard conditions.
Chain of mouse cGAS (Q8C6L5 whole entry): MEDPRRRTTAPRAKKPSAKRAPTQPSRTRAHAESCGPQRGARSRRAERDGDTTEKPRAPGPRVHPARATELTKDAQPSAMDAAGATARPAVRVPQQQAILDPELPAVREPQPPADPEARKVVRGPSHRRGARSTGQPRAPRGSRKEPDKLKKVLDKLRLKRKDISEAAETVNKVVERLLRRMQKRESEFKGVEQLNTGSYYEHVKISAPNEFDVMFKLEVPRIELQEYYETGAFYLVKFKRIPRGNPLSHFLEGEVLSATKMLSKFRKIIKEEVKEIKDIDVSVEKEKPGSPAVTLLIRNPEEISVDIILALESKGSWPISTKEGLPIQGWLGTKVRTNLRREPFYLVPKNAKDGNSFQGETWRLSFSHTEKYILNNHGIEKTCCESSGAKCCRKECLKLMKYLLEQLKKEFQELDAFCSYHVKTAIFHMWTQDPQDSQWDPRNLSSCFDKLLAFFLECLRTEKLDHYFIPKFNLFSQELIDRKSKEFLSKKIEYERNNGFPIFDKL
Potency with mcGAS is important for vivo efficacy studies and represents a challenge for lead development because mcGAS shares only 57% amino acid identity with human enzyme and there are significant functional differences.

In the next data set the target is cGAS (Homo sapiens, UniProt Q8N884). The experiment in a line: Cellular thermal shift assay (CETSA) in THP-1 cells. It counts as cell-based. The settings on record: heat treatment 51.5 °C. As to the method:
Panel A is an image of a western blot of the stabilization measure; panel B is a bar graph of the stabilization measure. Heat treatment was conducted at 51.5 ° C.
as §1

The nature of data set [2]: Metabolic stability in mouse hepatocytes. It counts as in vitro ADME. To be noted: read-out: Mouse MS Stability t1/2. In outline:
(§3)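 Permeability measured apical-to-basolateral in MDCK cells expressing human MDR1, reported as binned ranges in cm/s×10^−6. Metabolic stability determined as half-life in mouse and human hepatocytes, reported as binned ranges in minutes.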

Data set [3] can be described thus: Cytotoxicity, CellTiter Glo (ATP levels) and Presto Blue (reducing equivalents). It counts as cell-based. To be noted: CellTiter Glo, Presto Blue, dose response. As to the method: as §2
A further data set relates to MDR1 (P-glycoprotein). The experiment in a line: MDCK-MDR1 permeability A→B. It counts as in vitro ADME, Canine. The settings on record: dog; MDCK cells expressing human MDR1, A→B; read-out: MDCK-MDR Permeability A→B. In a few lines:
as §3

Data set [4] in a line: Kinetic aqueous solubility (KSOL) in PBS, pH 7.4. It counts as physicochemical. The settings on record: aqueous buffer, kinetic from dmso stock.
Data set [5] deals with IFN-β production in PBMCs. In words: IFNβ ELISA in human primary PBMCs. It counts as cell-based. To be noted: PBMC. In outline: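 Human primary PBMCs stimulated with dsDNA or cGAMP to trigger a cGAS/STING-dependent type I IFN response. Secreted IFNβ quantified by ELISA across a dose response to derive IC50 values.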

Values after ≈ are worked out from the molar mass of the structure shown. “Also recorded” adds a separate entry of the source.

Chain of cGAS (Q8N884 whole entry): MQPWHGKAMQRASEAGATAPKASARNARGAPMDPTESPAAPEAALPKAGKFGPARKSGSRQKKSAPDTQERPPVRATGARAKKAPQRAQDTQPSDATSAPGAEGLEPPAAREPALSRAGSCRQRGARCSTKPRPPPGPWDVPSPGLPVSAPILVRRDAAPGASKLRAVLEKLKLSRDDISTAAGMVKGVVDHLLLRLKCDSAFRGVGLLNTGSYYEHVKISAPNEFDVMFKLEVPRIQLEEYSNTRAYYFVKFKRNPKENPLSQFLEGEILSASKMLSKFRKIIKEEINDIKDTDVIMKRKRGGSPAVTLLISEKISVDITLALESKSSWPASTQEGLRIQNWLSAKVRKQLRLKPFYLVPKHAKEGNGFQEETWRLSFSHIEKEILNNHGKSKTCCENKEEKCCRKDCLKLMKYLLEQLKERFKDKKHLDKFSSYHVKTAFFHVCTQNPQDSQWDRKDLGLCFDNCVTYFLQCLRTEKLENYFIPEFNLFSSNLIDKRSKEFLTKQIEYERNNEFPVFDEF

In general, IC50 refers to the point on the concentration scale where inhibition reaches its midpoint. As a reminder, the solubility (kinetic) is solubility judged after dilution from a stock solution rather than from solid. As for `Cc1nc(N2C[C@@H](CC(=O)Nc3ccc(-c4ccccc4)cc3)C[C@H]2C(=O)O)c2oc3ccccc3c2n1` [Compound 5, (2S,4R)-4-(2-([1,1′-biphenyl]-4-ylamino)-2-oxoethyl)-1-(2-methylbenzofuro[3,2-d]pyrimidin-4-yl)pyrrolidine-2-carboxylic acid], the “Off-target activity with the TLR4 pathway” value in the data set on TLR4 pathway was “some off-target activity”. The IC50 in [1] (Homo sapiens, THP-1 cells) is under 1000 nM; on mouse cGAS, 4230 nM; in data set [5], 1000 to 2500 nM. Further, the “Cellular IC50 relative to biochemical IC50” value in [1] (cellular assays vs cGAS enzymatic assay at 1 mM ATP/GTP) is recorded as “essentially identical”. On cGAS, the “Stabilization of cGAS in cells (CETSA)” value is recorded as “dose dependent stabilization; also recorded: intracellular target engagement”. In addition, the half-life in data set [2] was over 5 h. Also, the Concentration showing cytotoxicity entry in data set [3] is listed as “above 25 μM”. For the same compound, the Papp A→B in the data set on MDR1 (P-glycoprotein) was 5 to 10 ×10⁻⁶ cm/s. Also, the solubility (kinetic) in data set [4] is 8 µM (≈ 4.05 µg/mL).
